# Experiments:
# GSK-3β (AA 1-420) = target: T1, GSK-3β (AA 1-420) (Homo sapiens, UniProt P49841); assay: Ki determination for the inhibition of GSK-3 (coupled enzyme system); type: biochemical; settings: 20 μM ATP, 20 nM GSK-3β, 30° C.
# T1 construct: GSK-3β (AA 1-420)
# Method: Compounds were screened for their ability to inhibit GSK-3β (AA 1-420) activity using a standard coupled enzyme system (Fox et al. (1998) Protein Sci. 7, 2249). Reactions were carried out in a solution containing 100 mM HEPES (pH 7.5), 10 mM MgCl2, 25 mM NaCl, 300 μM NADH, 1 mM DTT and 1.5% DMSO. Final substrate concentrations in the assay were 20 μM ATP (Sigma Chemicals, St Louis, Mo.) and 300 μM peptide (HSSPHQS (PO3H2) EDEEE, American Peptide, Sunnyvale, Calif.). Reactions were carried out at 30° C. and 20 nM GSK-3β. Final concentrations of the components of the coupled enzyme system were 2.5 mM phosphoenolpyruvate, 300 μM NADH, 30 μg/ml pyruvate kinase and 10 μg/ml lactate dehydrogenase.
# An assay stock buffer solution was prepared containing all of the reagents listed above with the exception of ATP and the test compound of interest. The assay stock buffer solution (175 μl) was incubated in a 96 well plate with 5 μl of the test compound of interest at final concentrations spanning 0.002 μM to 30 μM at 30° C. for 10 min. […] The reaction was initiated by the addition of 20 μl of ATP (final concentration 20 μM). Rates of reaction were obtained using a Molecular Devices Spectramax plate reader (Sunnyvale, Calif.) over 10 min at 30° C. The Ki values were determined from the rate data as a function of inhibitor concentration.
# T1 sequence (P49841 whole entry, the tested form may be a part): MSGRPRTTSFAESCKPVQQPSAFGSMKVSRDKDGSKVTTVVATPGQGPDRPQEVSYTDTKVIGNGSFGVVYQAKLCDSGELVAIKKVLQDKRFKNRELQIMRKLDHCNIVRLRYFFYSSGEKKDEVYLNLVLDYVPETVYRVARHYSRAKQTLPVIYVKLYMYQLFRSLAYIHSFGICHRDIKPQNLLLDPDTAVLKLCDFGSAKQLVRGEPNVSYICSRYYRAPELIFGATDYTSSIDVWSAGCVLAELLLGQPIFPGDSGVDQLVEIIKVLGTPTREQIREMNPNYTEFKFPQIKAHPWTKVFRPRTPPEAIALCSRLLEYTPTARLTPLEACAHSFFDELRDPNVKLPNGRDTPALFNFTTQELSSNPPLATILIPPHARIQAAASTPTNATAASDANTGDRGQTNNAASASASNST
melting point,Ki (GSK-3β (AA 1-420)),Compound
271 to 273 °C,,"c1ccc2c(Sc3nc(Nc4cc(C5CC5)n[nH]4)c4ccccc4n3)cccc2c1 [IIa-37, (5-Cyclopropyl-2H-pyrazol-3-yl)-[2-(naphthalen-1-ylsulfanyl)-quinazolin-4-yl]-amine]"
> 270 °C,100 to 1000 nM,"Cc1nc(Sc2ccc3ccccc3c2)nc(Nc2cc(C3CC3)[nH]n2)c1C [IIIa-4, (5-Cyclopropyl-2H-pyrazol-3-yl)-[5,6-dimethyl-2-(naphthalen-2-ylsulfanyl)-pyrimidin-4-yl]-amine]"
251 to 254 °C,< 100 nM,"CCS(=O)(=O)Nc1ccc(Sc2nc(Nc3cc(C)[nH]n3)cc(-c3ccccc3)n2)cc1 [IIIa-18, [2-(4-Ethanesulfonylamino-phenylsulfanyl)-6-phenyl-pyrimidin-4-yl]-(5-methyl-2H-pyrazol-3-yl)-amine]"
126 to 129 °C,< 100 nM,"COC(=O)c1cccc(Sc2nc(Nc3cc(C4CC4)[nH]n3)cc(-c3ccccc3)n2)c1 [IIIa-2, (5-Cyclopropyl-2H-pyrazol-3-yl)-[2-(3-methoxycarbonyl-phenylylsulfanyl)-6-phenylpyrimidin-4-yl]-amine]"
253 to 255 °C,1000 to 7000 nM,"Cc1cc(Nc2cc(-c3ccccc3)nc(Sc3ccc(NC(=O)C4CC4)cc3)n2)n[nH]1 [IIIa-16, [2-(4-Cyclopropanecarbonylamino-phenylsulfanyl)-6-phenylpyrimidin-4-yl]-(5-methyl-2H-pyrazol-3-yl)-amine]"
255 to 257 °C,< 100 nM,"Cc1cc(Nc2cc(-c3ccccc3)nc(Sc3ccc(NS(=O)(=O)C(C)C)cc3)n2)n[nH]1 [IIIa-24, [2-(4-Isopropanesulfonylamino-phenyl-sulfanyl)-6-phenyl-pyrimidin-4-yl]-(5-methyl-2H-pyrazol-3-yl)-amine]"
267 to 270 °C,,"Cc1cccc(Nc2nc(Nc3cc(C4CC4)[nH]n3)cc(-c3ccccc3)n2)c1 [IIIc-3, (5-Cyclopropyl-2H-pyrazol-3-yl)-[2-(3-methylphenylamino)-6-phenyl-pyrimidin-4-yl]-amine]"
232 °C,< 100 nM,"Cc1cc(Nc2cc(C3CC3)[nH]n2)nc(Sc2ccc3ccccc3c2)n1 [IIIa-6, (5-Cyclopropyl-2H-pyrazol-3-yl)-[6-methyl-2-(naphthalen-2-ylsulfanyl)-pyrimidin-4-yl]-amine]"
197 °C,100 to 1000 nM,"Cc1cnc(Sc2ccc3ccccc3c2)nc1Nc1cc(C2CC2)[nH]n1 [IIIa-5, (5-Cyclopropyl-2H-pyrazol-3-yl)-[5-methyl-2-(naphthalen-2-ylsulfanyl)-pyrimidin-4-yl]-amine]"
192 to 196 °C,,"Cc1cc(Nc2nc(Sc3nc4ccccc4[nH]3)nc3ccccc23)n[nH]1 [IIa-19, [2-(Benzimidazol-2-ylsulfanyl)-quinazolin-4-yl]-(5-methyl-2H-pyrazol-3-yl)-amine]"
208 to 209 °C,100 to 1000 nM,"CCC(=O)Nc1ccc(Sc2nc(Nc3cc(C4CC4)[nH]n3)cc(-c3ccccc3)n2)cc1 [IIIa-33, (5-Cyclopropyl-2H-pyrazol-3-yl)-[6-phenyl-2-(4-propionylamino-phenyl-sulfanyl)-pyrimidin-4-yl]-amine]"
293 to 298 °C,1000 to 7000 nM,Cc1cc(Nc2nc(Nc3ccc4oc(=O)c5ccccc5c4c3)nc3ccccc23)n[nH]1 [IIc-62]
113 to 115 °C,100 to 1000 nM,"CN1CCN(c2cc(Nc3cc(C4CC4)[nH]n3)nc(Sc3ccc4ccccc4c3)n2)CC1 [IIIa-8, (5-Cyclopropyl-2H-pyrazol-3-yl)-[6-(1-methylpiperazin-4-yl)-2-(naphthalen-2-ylsulfanyl)-pyrimidin-4-yl]-amine]"
204 to 205 °C,,"COCc1cc(Nc2cc(C)[nH]n2)nc(Sc2ccc(C(=O)OC)cc2)n1 [IIIa-39, [2-(4-Methoxycarbonyl-phenyl-sulfanyl)-6-methoxymethyl-pyrimidin-4-yl]-(5-methyl-2H-pyrazol-3-yl)-amine]"
257 to 259 °C,,"CC(=O)Nc1ccc(Sc2nc(Nc3cc(C)n[nH]3)c3cccc(F)c3n2)cc1 [IIa-78, [2-(4-Acetamidophenylsulfanyl)-8-fluoro-quinazolin-4-yl]-(5-methyl-2H-pyrazol-3-yl)-amine]"
248 to 250 °C,< 100 nM,"c1ccc2cc(Sc3nccc(Nc4cc(C5CC5)[nH]n4)n3)ccc2c1 [IIIa-3, (5-Cyclopropyl-2H-pyrazol-3-yl)-[2-(naphthalen-2-ylsulfanyl)-pyrimidin-4-yl]-amine]"
191 to 193 °C,,"c1ccc(-c2cc(Nc3cc(C4CC4)[nH]n3)nc(NCc3cccnc3)n2)cc1 [IIIc-5, (5-Cyclopropyl-2H-pyrazol-3-yl)-[6-phenyl-2-(pyridin-3-ylmethylamino)-pyrimidin-4-yl]-amine]"
237 to 239 °C,,"Cc1cc(Nc2cc(-c3ccccc3)nc(Sc3ccc4ccccc4c3)n2)n[nH]1 [IIIa-12, (5-Methyl-2H-pyrazol-3-yl)-[2-(naphthalen-2-ylsulfanyl)-6-phenyl-pyrimidin-4-yl]-amine]"
148 to 152 °C,,"Cc1cc(Nc2cc(-c3c(C)cccc3C)nc(Sc3ccc4ccccc4c3)n2)n[nH]1 [IIIa-9, [6-(2,6-Dimethylphenyl)-2-(naphthalen-2-ylsulfanyl)-pyrimidin-4-yl]-(5-methyl-2H-pyrazol-3-yl)-amine]"
241 to 243 °C,,"Cc1cc(Nc2cc(-c3ccccc3)nc(Sc3ccc(NC(=O)CC(C)C)cc3)n2)n[nH]1 [IIIa-20, [2-(4-Isobutanecarbonylamino-phenyl-sulfanyl)-6-phenyl-pyrimidin-4-yl]-(5-methyl-2H-pyrazol-3-yl)-amine]"
217 °C,,"Cc1cc(Nc2nc(N(CCO)c3ccccc3)nc3ccccc23)n[nH]1 [IIc-1, {2-[(2-Hydroxyethyl)phenylamino]-quinazolin-4-yl}-(5-methyl-2H-pyrazol-3-yl)-amine]"
,100 to 1000 nM,"FC(F)(F)c1ccc(Nc2nc(Nc3n[nH]c4ccccc34)c3ccccc3n2)cc1 [IIc-72, (1H-Indazol-3-yl)-[2-(4-trifluoromethylphenylamino)-quinazolin-4-yl]-amine]"
,< 100 nM,"Cc1cc(Nc2nc(C3CC3c3ccccc3)nc3ccccc23)n[nH]1 (centres unmarked) [IId-19, (5-Methyl-1H-pyrazol-3-yl)-[2-(2-phenyl-cyclopropyl)-quinazolin-4-yl]-amine]"
,100 to 1000 nM,"Fc1ccc2[nH]nc(Nc3nc(C4CC4c4ccccc4)nc4ccccc34)c2c1 (centres unmarked) [IId-18, (5-Fluoro-1H-indazol-3-yl)-[2-(2-phenyl-cyclopropyl)-quinazolin-4-yl]-amine]"
267 to 269 °C,,"c1ccc(Nc2nc(Nc3cc(C4CC4)[nH]n3)cc(-c3ccccc3)n2)cc1 [IIIc-2, (5-Cyclopropyl-2H-pyrazol-3-yl)-(6-phenyl-2-phenylamino-pyrimidin-4-yl)-amine]"
> 250 °C,,"Cc1cc(Nc2nc(Nc3ccc4cn[nH]c4c3)nc3ccccc23)n[nH]1 [IIc-9, [2-(1H-Indazol-6-ylamino)-quinazolin-4-yl]-(5-methyl-2H-pyrazol-3-yl)-amine]"
,100 to 1000 nM,"Fc1cccc2c(Nc3nc(C4CC4c4ccccc4)nc4ccccc34)n[nH]c12 (centres unmarked) [IId-17, (7-Fluoro-1H-indazol-3-yl)-[2-(2-phenyl-cyclopropyl)-quinazolin-4-yl]-amine]"
